Results: publication PMC11469747 (Clinical and Translational Science, 2024)

Key:
[1] = system: CYP1A2, CYP2B6, CYP2C8, CYP2C9, CYP2D6, CYP2E1, CYP3A4/5; assay: Inhibitory DDI evaluation, cocktail incubation in HLM, all probe reactions; assay type: in vitro ADME; conditions: human, pooled human liver microsomes
[2] = molecular target: CYP2D6 (Homo sapiens, UniProt P10635); assay: Inhibitory DDI evaluation, cocktail incubation in HLM; assay type: in vitro ADME
[3] = molecular target: T1, CYP1A2 (Homo sapiens, UniProt P05177); assay: as above; assay type: in vitro ADME
T1 sequence (P05177 1-516): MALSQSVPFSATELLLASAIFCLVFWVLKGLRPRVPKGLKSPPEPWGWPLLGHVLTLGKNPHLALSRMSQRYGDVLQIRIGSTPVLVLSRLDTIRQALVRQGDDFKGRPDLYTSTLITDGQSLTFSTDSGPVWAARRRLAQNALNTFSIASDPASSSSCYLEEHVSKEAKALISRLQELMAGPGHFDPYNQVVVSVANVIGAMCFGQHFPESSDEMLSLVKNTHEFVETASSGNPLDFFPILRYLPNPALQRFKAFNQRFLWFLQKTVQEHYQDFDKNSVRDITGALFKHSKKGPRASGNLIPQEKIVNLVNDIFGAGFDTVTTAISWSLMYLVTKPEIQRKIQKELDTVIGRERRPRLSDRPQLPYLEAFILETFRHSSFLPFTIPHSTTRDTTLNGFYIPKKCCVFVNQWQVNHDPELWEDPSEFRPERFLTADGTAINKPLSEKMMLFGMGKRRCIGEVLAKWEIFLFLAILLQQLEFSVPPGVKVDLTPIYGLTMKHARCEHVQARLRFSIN

[4] = molecular target: CYP2E1 (Homo sapiens, UniProt P05181); assay: as above; assay type: in vitro ADME
[5] = Metabolic stability study in HLM; assay type: in vitro ADME, human; conditions: for stability in the negative control assay: without HLM, NADPH regenerating system and UDPGA, up to 120 min, 37°C
[6] = molecular target: CYP2C9 (Homo sapiens, UniProt P11712); assay: Inhibitory DDI evaluation, cocktail incubation in HLM; assay type: in vitro ADME
[7] = molecular target: T2, CYP2B6 (Homo sapiens, UniProt P20813); assay: as above; assay type: in vitro ADME
T2 sequence (P20813 1-491): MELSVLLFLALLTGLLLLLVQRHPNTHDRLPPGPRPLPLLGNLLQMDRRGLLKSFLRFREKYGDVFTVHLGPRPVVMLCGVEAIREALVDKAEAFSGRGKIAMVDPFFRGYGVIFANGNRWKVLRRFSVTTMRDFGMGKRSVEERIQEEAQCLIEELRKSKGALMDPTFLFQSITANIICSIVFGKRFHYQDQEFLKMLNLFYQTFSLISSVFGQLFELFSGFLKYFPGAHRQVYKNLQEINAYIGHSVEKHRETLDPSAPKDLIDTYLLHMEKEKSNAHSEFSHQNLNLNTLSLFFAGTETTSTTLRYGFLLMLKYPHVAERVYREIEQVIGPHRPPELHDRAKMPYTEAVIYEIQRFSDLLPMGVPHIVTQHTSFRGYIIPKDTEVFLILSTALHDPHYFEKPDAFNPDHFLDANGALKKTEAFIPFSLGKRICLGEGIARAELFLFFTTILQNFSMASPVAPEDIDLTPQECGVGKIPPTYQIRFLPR

[8] = cited from earlier work
[9] = molecular target: T3, CYP2C8 (Homo sapiens, UniProt P10632); assay: Inhibitory DDI evaluation, cocktail incubation in HLM; assay type: in vitro ADME
T3 sequence (P10632 1-490): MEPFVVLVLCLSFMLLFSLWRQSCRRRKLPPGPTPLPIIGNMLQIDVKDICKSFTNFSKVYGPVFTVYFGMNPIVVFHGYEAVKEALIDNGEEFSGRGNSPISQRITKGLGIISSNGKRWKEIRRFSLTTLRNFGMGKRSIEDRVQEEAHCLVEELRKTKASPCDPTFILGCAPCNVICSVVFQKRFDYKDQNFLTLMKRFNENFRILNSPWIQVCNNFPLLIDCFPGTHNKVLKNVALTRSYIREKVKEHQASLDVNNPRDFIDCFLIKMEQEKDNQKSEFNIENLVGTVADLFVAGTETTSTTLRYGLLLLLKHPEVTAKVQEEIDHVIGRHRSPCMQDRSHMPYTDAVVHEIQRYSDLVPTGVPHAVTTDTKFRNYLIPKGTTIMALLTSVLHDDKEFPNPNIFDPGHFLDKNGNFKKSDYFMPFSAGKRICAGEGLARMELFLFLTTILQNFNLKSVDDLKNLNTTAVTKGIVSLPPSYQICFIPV

[10] = system: CYP3A4/5; assay: Phase I enzyme determination in HLM with CYP-specific inhibitor ketoconazole; assay type: in vitro ADME, human; conditions: HLM with six CYP-specific inhibitors
[11] = molecular target: T3, CYP2C8; assay: Phase I enzyme determination in HLM with CYP-specific inhibitor quercetin; conditions: quercetin 10 μM
[12] = system: recombinant human UGT1A4; assay: Phase II enzyme determination with recombinant human UGT; assay type: in vitro ADME; conditions: rotundic acid 2.5 μM, UGT1A4 0.25 mg protein/mL, 20 min
[13] = system: recombinant human UGT2B7; assay: as above; assay type: in vitro ADME; conditions: rotundic acid 2.5 μM, UGT2B7 0.25 mg protein/mL, 20 min
[14] = system: recombinant human UGT1A9; assay: as above; assay type: in vitro ADME; conditions: rotundic acid 2.5 μM, UGT1A9 0.25 mg protein/mL, 20 min
[15] = system: recombinant human UGT1A1; assay: as above; assay type: in vitro ADME; conditions: rotundic acid 2.5 μM, UGT1A1 0.25 mg protein/mL, 20 min
[16] = system: recombinant human UGT1A6; assay: as above; assay type: in vitro ADME; conditions: rotundic acid 2.5 μM, UGT1A6 0.25 mg protein/mL, 20 min

CYP2C9, sequence (P11712 whole entry): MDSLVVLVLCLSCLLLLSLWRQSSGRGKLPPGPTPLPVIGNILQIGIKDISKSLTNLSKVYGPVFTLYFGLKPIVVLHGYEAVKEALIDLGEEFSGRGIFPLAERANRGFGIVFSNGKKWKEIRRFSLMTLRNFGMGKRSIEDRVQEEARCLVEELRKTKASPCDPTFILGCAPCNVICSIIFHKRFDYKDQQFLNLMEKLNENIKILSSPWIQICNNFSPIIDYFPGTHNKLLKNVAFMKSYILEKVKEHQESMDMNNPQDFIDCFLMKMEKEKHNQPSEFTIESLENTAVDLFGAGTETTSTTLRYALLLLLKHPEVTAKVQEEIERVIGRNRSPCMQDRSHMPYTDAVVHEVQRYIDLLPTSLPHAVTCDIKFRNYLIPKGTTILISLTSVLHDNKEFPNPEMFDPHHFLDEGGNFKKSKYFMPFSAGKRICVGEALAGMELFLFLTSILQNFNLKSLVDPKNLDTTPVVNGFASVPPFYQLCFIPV
CYP2D6, sequence (P10635 whole entry): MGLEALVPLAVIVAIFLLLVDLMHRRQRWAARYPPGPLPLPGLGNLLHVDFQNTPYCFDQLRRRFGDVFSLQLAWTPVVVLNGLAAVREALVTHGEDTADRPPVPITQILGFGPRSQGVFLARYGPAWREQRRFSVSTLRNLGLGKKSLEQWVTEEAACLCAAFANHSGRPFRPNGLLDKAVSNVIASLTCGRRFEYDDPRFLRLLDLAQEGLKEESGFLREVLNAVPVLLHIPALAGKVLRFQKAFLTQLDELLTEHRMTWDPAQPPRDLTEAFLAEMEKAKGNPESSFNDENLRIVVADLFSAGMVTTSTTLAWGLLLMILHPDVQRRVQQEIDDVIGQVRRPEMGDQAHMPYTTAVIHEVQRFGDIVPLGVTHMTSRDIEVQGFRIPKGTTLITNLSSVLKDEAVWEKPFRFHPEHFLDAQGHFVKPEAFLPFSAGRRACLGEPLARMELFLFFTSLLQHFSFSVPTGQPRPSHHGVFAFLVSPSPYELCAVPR
CYP2E1, sequence (P05181 whole entry): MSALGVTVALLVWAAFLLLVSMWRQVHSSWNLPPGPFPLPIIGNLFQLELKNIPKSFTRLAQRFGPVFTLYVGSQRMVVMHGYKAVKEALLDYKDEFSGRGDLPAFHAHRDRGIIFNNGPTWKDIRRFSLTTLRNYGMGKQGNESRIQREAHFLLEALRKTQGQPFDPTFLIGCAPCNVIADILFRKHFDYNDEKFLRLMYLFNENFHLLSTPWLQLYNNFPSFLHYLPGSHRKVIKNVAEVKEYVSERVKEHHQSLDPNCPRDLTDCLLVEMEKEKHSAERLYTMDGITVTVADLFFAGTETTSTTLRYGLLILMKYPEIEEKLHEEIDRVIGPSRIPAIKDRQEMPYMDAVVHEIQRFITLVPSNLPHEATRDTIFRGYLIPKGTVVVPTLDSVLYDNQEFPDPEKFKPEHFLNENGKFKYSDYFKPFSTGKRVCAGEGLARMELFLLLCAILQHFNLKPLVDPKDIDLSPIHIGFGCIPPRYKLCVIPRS

Structure (SMILES)	IC50 at 20 min [1]	IC50 [2]	IC50 [3]	IC50 [4]	stability in the negative control assay [5]	IC50 [6]	IC50 [7]	IC50 [9]	enzymes catalyzing hydroxylation [10]	other results
C[C@@H]1CC[C@]2(C(=O)O[C@@H]3O[C@H](CO)[C@@H](O)[C@H](O)[C@H]3O)CC[C@]3(C)C(=CC[C@@H]4[C@@]5(C)CC[C@H](O)[C@@](C)(CO)[C@@H]5CC[C@]43C)[C@@H]2[C@]1(C)O [pedunculoside]	> 50 µM	> 50 µM	> 50 µM	> 50 µM	stable	> 50 µM	> 50 µM	> 50 µM	mainly catalyzed by CYP3A4/5 and partly by CYP2C8	Cmax ([8]; plasma, after oral administration, converted from ng/mL): 154 to 768 nM; elimination half-life ([8]; rats, oral or intravenous): short
O=c1c(O)c(-c2ccc(O)c(O)c2)oc2cc(O)cc(O)c12 [quercetin]										generation rate of PE + O (1) [11]: approximately 45%; generation rate of PE + O (2) [11]: approximately 60%
C[C@@H]1CC[C@]2(C(=O)O)CC[C@]3(C)C(=CC[C@@H]4[C@@]5(C)CC[C@H](O)[C@@](C)(CO)[C@@H]5CC[C@]43C)[C@@H]2[C@]1(C)O [rotundic acid]	> 50 µM	> 50 µM	> 50 µM	> 50 µM	stable	> 50 µM	> 50 µM	> 50 µM	almost exclusively catalyzed by CYP3A4/5	generation of glucuronidated rotundic acid [12]: detected; metabolized after incubation for 120 min ([5]; ~1 μM, HLM, UDPGA absent (UDPGA-)): ~ 50%; compound remaining after 120 min ([5]; ~1 μM, HLM, absence of the NADPH regeneration system (NADPH-)): approximately 25%; rotundic acid remained after 120 min ([5]; ~1 μM, HLM, normal group, under regular conditions): less than 10%; generation of glucuronidated rotundic acid [13]: not detected; generation of glucuronidated rotundic acid [14]: not detected; generation of glucuronidated rotundic acid [15]: not detected; generation of glucuronidated rotundic acid [16]: not detected
